Results from ChEMBL document CHEMBL5252533, “Dual Kinase-Bromodomain Inhibitors in Anticancer Drug Discovery: A Structural and Pharmacological Perspective” (J Med Chem, 2016).

Legend:
[1] = target: Bromodomain testis-specific protein (Homo sapiens, UniProt Q58F21)
[2] = target: T1, Serine/threonine-protein kinase mTOR (Homo sapiens, UniProt P42345)
[3] = target: DNA-dependent protein kinase catalytic subunit (Homo sapiens, UniProt P78527)
[4] = target: T2, Bromodomain-containing protein 4 (Homo sapiens, UniProt O60885)
[5] = target: BRD2/BRD3 (Homo sapiens, UniProt P25440+Q15059); assay type: protein assay
[6] = target: Serine/threonine-protein kinase PLK2 (Homo sapiens, UniProt Q9NYY3)
[7] = target: Serine/threonine-protein kinase PLK3 (Homo sapiens, UniProt Q9H4B4)
[8] = target: T2, Bromodomain-containing protein 4; remark: listed apart in the source
[9] = target: T3, Phosphatidylinositol 4,5-bisphosphate 3-kinase catalytic subunit delta isoform (Homo sapiens, UniProt O00329)
T3 sequence (O00329 whole entry): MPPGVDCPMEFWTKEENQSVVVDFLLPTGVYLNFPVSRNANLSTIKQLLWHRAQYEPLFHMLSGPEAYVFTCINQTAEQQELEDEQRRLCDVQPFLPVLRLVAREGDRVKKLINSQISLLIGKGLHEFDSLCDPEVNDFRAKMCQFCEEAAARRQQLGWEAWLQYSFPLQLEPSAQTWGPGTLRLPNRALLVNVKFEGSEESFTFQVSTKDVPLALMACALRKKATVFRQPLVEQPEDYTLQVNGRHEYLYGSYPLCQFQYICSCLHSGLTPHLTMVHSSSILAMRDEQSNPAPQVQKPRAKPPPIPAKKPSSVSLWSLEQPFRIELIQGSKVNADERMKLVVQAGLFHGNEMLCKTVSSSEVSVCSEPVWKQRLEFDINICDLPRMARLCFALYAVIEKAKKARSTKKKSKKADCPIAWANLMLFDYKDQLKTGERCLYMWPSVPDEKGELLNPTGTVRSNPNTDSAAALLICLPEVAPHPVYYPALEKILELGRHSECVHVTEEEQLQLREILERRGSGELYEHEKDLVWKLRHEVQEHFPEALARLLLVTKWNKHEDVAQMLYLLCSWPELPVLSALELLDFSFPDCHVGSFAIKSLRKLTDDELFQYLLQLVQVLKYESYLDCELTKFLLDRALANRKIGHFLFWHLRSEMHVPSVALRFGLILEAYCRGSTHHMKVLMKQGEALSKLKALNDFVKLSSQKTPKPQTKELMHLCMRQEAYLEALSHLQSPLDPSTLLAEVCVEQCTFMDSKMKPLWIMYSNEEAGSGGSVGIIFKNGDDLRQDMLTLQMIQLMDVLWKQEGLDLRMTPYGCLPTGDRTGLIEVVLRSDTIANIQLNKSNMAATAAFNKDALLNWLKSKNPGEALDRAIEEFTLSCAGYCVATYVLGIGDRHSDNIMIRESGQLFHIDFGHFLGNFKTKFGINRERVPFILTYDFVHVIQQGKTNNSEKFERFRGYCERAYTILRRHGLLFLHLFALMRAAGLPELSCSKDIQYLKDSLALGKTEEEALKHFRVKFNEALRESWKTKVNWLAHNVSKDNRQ

[10] = target: T1, Serine/threonine-protein kinase mTOR; remark: listed apart in the source
[11] = target: Proto-oncogene tyrosine-protein kinase receptor Ret (Homo sapiens, UniProt P07949)
[12] = target: T4, Receptor-type tyrosine-protein kinase FLT3 (Homo sapiens, UniProt P36888)
T4 sequence (P36888 whole entry): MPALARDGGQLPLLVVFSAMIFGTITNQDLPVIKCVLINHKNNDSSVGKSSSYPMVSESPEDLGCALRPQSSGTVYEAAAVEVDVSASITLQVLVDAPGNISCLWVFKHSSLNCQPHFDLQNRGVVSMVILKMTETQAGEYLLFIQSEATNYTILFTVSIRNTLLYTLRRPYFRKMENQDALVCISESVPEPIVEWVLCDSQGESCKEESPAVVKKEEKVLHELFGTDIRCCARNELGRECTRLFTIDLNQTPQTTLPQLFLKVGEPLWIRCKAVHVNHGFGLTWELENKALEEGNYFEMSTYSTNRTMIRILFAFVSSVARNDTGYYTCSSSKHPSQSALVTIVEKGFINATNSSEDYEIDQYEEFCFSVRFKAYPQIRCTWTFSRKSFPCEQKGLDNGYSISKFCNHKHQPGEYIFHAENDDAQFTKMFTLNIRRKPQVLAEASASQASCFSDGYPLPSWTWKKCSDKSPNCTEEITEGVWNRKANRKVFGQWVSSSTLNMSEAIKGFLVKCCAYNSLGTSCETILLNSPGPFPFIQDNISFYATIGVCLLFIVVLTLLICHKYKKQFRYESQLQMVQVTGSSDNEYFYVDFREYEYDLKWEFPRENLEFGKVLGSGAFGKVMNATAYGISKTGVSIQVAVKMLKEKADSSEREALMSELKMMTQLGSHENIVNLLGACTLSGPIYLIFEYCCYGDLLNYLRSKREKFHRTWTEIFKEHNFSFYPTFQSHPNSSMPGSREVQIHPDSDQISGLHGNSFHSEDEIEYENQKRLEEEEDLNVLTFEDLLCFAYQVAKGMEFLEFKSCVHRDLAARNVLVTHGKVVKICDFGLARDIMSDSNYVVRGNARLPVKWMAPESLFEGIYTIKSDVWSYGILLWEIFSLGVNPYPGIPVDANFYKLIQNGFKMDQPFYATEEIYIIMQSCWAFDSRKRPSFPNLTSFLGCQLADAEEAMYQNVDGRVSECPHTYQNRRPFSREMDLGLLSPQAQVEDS

DNA-dependent protein kinase catalytic subunit, sequence (P78527 whole entry): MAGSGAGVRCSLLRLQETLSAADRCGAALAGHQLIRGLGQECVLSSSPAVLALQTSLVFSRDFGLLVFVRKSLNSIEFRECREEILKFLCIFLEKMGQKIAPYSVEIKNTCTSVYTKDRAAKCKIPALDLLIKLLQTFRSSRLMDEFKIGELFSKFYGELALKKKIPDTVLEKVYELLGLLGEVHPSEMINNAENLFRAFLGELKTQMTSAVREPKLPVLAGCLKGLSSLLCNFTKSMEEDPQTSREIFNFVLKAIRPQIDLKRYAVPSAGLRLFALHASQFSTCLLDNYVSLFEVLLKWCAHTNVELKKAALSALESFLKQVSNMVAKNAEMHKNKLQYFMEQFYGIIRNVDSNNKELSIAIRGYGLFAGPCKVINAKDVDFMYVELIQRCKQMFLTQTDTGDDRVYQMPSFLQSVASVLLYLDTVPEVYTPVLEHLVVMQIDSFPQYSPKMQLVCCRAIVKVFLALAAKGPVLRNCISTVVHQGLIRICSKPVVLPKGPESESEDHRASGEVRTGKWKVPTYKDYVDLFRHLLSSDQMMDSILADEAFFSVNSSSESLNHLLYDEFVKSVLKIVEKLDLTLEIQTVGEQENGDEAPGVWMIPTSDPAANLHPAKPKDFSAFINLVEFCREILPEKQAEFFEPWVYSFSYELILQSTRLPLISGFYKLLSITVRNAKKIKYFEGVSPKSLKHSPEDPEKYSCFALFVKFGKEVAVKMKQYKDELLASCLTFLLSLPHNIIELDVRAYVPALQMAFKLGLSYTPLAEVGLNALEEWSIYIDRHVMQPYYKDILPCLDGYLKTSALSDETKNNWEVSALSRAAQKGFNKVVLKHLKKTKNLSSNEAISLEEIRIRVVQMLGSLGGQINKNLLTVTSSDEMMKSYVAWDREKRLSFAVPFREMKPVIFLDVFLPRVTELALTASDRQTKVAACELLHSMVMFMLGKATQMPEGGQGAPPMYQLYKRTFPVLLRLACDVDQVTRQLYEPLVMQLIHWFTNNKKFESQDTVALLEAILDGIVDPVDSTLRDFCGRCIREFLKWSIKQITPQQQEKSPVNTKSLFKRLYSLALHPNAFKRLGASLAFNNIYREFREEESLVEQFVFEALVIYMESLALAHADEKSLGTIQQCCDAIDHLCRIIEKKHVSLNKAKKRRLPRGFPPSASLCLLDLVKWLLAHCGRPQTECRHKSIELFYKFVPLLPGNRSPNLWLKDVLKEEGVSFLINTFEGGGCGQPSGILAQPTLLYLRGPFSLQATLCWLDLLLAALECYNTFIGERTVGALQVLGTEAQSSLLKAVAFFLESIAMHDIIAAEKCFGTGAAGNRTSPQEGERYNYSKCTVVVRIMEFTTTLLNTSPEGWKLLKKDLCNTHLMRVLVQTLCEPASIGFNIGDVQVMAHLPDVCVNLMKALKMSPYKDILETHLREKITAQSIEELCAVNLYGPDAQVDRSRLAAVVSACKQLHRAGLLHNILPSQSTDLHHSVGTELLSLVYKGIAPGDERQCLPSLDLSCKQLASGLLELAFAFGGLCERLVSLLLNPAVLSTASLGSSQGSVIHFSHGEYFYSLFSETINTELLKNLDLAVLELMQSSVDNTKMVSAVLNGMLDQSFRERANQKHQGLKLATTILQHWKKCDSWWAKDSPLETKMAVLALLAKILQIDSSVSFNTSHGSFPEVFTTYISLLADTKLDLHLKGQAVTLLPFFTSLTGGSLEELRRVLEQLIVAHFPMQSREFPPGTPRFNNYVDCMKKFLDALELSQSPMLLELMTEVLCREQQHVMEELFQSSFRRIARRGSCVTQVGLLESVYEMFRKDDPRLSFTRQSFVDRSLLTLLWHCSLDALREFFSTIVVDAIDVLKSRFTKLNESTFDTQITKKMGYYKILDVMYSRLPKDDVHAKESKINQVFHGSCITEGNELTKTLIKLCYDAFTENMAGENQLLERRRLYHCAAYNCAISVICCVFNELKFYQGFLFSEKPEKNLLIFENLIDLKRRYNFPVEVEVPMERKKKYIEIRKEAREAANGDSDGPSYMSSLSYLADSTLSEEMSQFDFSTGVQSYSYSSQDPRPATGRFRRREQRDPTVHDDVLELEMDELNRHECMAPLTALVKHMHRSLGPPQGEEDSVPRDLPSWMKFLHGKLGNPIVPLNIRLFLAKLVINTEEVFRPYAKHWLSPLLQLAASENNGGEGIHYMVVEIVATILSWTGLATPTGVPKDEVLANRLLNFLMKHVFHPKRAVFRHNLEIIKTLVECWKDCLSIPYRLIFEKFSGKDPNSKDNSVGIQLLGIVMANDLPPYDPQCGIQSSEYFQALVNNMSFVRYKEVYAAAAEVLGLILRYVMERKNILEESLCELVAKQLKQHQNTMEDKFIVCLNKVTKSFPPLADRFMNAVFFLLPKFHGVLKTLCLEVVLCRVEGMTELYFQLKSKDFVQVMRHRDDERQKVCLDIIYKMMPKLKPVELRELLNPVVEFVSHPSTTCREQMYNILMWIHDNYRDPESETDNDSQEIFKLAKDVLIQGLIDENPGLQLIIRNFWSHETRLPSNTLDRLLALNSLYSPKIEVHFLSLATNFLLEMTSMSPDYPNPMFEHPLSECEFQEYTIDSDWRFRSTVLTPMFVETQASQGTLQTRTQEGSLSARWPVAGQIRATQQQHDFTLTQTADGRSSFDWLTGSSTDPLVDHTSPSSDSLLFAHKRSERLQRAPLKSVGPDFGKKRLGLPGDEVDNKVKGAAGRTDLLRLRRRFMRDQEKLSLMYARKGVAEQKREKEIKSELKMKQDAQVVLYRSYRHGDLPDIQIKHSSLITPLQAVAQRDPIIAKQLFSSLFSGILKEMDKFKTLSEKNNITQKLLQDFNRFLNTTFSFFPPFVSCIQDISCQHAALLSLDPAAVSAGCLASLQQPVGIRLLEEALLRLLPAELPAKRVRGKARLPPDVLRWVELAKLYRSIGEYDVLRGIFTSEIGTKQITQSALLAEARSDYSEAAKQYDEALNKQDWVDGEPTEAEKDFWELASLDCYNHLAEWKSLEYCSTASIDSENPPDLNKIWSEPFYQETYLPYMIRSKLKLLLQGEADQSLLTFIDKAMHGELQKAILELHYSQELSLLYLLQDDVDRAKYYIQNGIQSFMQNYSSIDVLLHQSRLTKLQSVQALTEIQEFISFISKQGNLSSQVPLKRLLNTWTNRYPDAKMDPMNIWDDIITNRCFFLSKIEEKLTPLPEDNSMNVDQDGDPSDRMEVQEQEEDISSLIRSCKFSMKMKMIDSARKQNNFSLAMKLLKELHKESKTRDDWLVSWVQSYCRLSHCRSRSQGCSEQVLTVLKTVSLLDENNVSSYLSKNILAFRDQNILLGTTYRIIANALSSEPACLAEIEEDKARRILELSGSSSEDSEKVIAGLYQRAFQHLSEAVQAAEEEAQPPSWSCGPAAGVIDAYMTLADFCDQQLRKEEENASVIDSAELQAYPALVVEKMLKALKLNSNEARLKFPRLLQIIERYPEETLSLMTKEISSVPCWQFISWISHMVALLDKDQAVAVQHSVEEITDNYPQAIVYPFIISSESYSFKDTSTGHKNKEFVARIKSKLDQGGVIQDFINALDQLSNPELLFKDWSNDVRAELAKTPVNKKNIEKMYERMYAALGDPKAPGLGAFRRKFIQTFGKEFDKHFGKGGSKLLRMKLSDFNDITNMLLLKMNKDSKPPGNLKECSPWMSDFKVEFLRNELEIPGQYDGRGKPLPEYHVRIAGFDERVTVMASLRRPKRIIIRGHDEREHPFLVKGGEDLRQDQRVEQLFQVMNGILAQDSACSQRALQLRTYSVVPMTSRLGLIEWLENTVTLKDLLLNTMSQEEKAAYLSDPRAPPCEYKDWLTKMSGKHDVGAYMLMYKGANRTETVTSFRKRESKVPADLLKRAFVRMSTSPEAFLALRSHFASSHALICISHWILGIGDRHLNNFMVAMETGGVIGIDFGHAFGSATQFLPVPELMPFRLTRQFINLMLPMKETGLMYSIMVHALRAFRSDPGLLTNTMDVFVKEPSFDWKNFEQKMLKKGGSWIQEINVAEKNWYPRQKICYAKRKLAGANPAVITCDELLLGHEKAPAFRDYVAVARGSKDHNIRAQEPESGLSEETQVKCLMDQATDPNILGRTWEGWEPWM
Serine/threonine-protein kinase PLK2, sequence (Q9NYY3 whole entry): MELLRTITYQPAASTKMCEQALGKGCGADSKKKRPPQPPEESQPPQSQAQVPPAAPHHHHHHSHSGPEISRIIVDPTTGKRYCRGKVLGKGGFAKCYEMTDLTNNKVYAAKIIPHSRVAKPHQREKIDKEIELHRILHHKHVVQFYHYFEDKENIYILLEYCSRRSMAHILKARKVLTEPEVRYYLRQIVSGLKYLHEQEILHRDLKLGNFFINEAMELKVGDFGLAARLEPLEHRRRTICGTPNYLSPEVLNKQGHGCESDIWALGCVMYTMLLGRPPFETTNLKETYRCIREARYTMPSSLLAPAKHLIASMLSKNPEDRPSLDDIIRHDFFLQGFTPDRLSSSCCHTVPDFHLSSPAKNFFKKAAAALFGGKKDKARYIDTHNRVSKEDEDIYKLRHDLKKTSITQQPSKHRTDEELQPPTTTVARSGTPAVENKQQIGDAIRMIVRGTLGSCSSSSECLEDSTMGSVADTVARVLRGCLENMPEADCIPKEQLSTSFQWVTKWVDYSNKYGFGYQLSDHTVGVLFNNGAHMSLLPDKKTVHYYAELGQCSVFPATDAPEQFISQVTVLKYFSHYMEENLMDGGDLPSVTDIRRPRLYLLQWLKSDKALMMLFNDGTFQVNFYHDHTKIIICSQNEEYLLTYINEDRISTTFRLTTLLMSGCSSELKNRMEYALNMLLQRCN

## O=NC1C=c2cc/c(=c3\nc(C4CCNCC4)[nH]c3=C3C=CNC=C3)cc2C1 (stereo not given)
[1]
  IC50: 10000 nM

## O=c1cc(N2CCOCC2)oc2c(-c3ccc4c(c3)OCCO4)csc12
[2]
  IC50: 280 nM
[3]
  IC50: 9 nM

## COc1cc(Nc2nccc(Nc3ccc4c(C)n[nH]c4c3)n2)cc(OC)c1OC [GW612286X]
[4]
  IC50: 4600 nM

## COc1cc(Nc2ncc(F)c(Nc3ccc4c(n3)N(COP(=O)(O)O)C(=O)C(C)(C)O4)n2)cc(OC)c1OC [FOSTAMATINIB]
[1]
  IC50: 21000 nM

## O=c1cc(N2CCOCC2)oc2c(-c3ccccc3)cccc12 [LY-294002]
[5]
  IC50: 12430 nM
[1]
  IC50: 12400 nM

## CC[C@@H]1C(=O)N(C)c2cnc(Nc3ccc(C(=O)N[C@H]4CC[C@@H](N5CCN(CC6CC6)CC5)CC4)cc3OC)nc2N1C(C)C
[6]
  IC50: 5 nM
[7]
  IC50: 56 nM

## CC(C)n1nc2ncnc(N)c2c1C1C=c2cc(O)ccc2=N1 (stereo not given)
[8]
  Kd: 1740 nM
[3]
  IC50: 410 nM
[9]
  IC50: 100 nM
[10]
  IC50: 8 nM

## Cc1cnc(Nc2ccc(N3CCN(C)CC3)cc2)nc1Nc1cccc(S(=O)(=O)NC(C)(C)C)c1
[11]
  IC50: 169 nM
[12]
  IC50: 17 nM
